# In US12594264B2, “Modulators of alpha-synuclein proteolysis and associated methods of use” (Arvinas Operations, Inc., priority 2018, dated 2026):
# Biological target: T1, sarkosyl insoluble (SI) α-synuclein (human α-SYN A53T) (Homo sapiens, UniProt P37840, A53T)
# T1 construct: expressed in transfected cells
# Assay: MJFF-14-6-4-2 conformation specific ELISA of sarkosyl insoluble α-synuclein after compound treatment
# Assay type: cell-based
# Conditions: 1 μM compound; protein remaining relative to DMSO control; PFF induced A53T α-synuclein overexpressing HEK293 cells; read-out: Protein Degradation at 1 μM
# Protocol: Targeted degradation of sarkosyl insoluble (SI) α-synuclein via exemplary bifunctional compounds was assessed by MJFF-14-6-4-2 conformation specific ELISA following treatment of PFF induced A53T α-synuclein overexpressing HEK293 cells with 1 μM exemplary compound compared to DMSO vehicle control. Degradation activity of the exemplary compounds of Table 2 is expressed as % DMSO control. […] However, the effect of bifunctional targeting degraders, shown in FIG. 5, required the intact E3 ligase binding domain.
# Trex293 (doxycycline inducible) cells stably expressing human α-SYN A53T (monoclonal) were plated in poly-d-lysine coated T-75 tissue culture flasks (4.5×10e6 cells/flask) in DMEM with 10% tet-free FBS, 10 μg/ml blasticidin, and 400 μg/ml zeocin. After an overnight incubation, the cells were induced to express α-SYN by treatment with 1 μg/ml doxycycline (Dox) and exemplary bifunctional compound. After a 24 hour dox induction, the medium on the cells was changed to Opti-MEM followed by treatment with α-SYN pre-formed fibrils** (PFFs)(5 μg/flask) pre-complexed with Lipofectamine 2000 transfection reagent for 4 hours. After PFF treatment, the medium was changed back to DMEM with the supplements described above and exemplary bifunctional compound for 48 hours.
# Cell pellets were harvested from each flask using 0.25% trypsin followed by spinning at 500×g for 5 minutes. Each pellet was resuspended in 1 ml cold buffer H [Buffer H-10 mM Tris, 1 mM EGTA, 0.8M NaCl, 10% sucrose, pH7.4 containing 1× protease and phosphatase inhibitors] containing protease and phosphatase inhibitors. The resuspended pellets were incubated on ice for 20 minutes followed by centrifugation at 27,200×g for 20 minutes at 4° C. The supernatants were adjusted to 1% sarkosyl (Sigma) and 1% 2-mercaptoethanol followed by incubation for 1 hour at 37° C. on an orbital shaker set to 400 rpm. The samples were then spun at 150,000×g for 35 minutes at room temperature. The supernatant was removed and saved as the soluble fraction and the insoluble pellet was resuspended in 25 μl tris-buffered saline (TBS). Protein concentrations were determined by NanoDrop, and normalized protein concentrations were analyzed by WES capillary electrophoresis as well as an α-SYN oligomer ELISA.
# Recombinant human α-SYN was purchased from Proteos. 1 mg aliquots were supplied at 10 mg/ml in 10 mM Tris, 50 mM NaCl, pH7.6. The aliquot was thawed on ice followed by centrifugation at 4° C. for 10 minutes at 12,000×g to pellet any insoluble material. The supernatant was removed and quantitated on a NanoDrop (A280) using Beer's Law (ε=5960 M-1 cm-1). The concentration was adjusted to 5 mg/ml in PBS followed by vortexing for 3 seconds to mix contents. The mixture was incubated in an orbital shaker set to 37° C. at 1,000 rpm for 7 days followed by aliquoting into individual use vials. Prior to addition to cells, an aliquot was thawed at room temperature, then diluted to 1 mg/ml with phosphate-buffered saline (PBS) followed by sonication for 1 minute with a probe sonicator (output 1; 90% duty cycle) in a chem hood.
# Coming Costar high bind black well plates were coated with MJFR 14-6-4-2 (Abcam) at 1 μg/ml for 1 hour at 37° C. followed by washing with 1×TBS+0.1% tween-20 (TBS-T) then blocking with 3% bovine serum albumin (BSA) in TBS. After re-washing, samples were added after dilution in diluent (1% BSA/TBS-T). Non-sonicated PFF was used to generate a standard curve. The plates were incubated with sample overnight at 4° C. with shaking. The following day alkaline phosphatase (AP) conjugated MJFR 14-6-4-2 was added to the plate without washing followed by incubation at room temperature for 1 hour with shaking or rocking. The plates were then re-washed and substrate (CDP star alkaline phosphatase detection reagent) was added followed by a 30 minute incubation at room temperature. The plate was read on a luminescence plate reader. The counts were log transformed and read off the standard curve. […]
row,Compound,remaining activity at 1 µM
1,"CNc1ccc(-c2nc3ccc(OCCOCCOCC(=O)N[C@H](C(=O)N4C[C@H](O)C[C@H]4C(=O)N[C@@H](C)c4ccc(-c5scnc5C)cc4)C(C)(C)C)cc3s2)cc1 [Exemplary Compound 1, (2S,4R)-1-[(2S)-3,3-dimethyl-2-[[2-[2-[2-[[2-[4-(methylamino)phenyl]-1,3-benzothiazol-6-yl]oxy]ethoxy]ethoxy]acetyl]amino]butanoyl]-4-hydroxy-N-[(1S)-1-[4-(4-methylthiazol-5-yl)phenyl]ethyl]pyrrolidine-2-carboxamide]",< 35%
2,"CNc1ccc(-c2nc3ccc(OCCOCCOCCOCCOCC(=O)N[C@H](C(=O)N4C[C@H](O)C[C@H]4C(=O)N[C@@H](C)c4ccc(-c5scnc5C)cc4)C(C)(C)C)cc3s2)cc1 [Exemplary Compound 3, (2S,4R)-1-((S)-2-(tert-butyl)-17-((2-(4-(methylamino)phenyl)benzo[d]thiazol-6-yl)oxy)-4-oxo-6,9,12,15-tetraoxa-3-azaheptadecanoyl)-4-hydroxy-N-((S)-1-(4-(4-methylthiazol-5-yl)phenyl)ethyl)pyrrolidine-2-carboxamide]",35 to 70%
3,"CNc1ccc(-c2nc3ccc(OCCOCCOCCOCCOCCOCC(=O)N[C@H](C(=O)N4C[C@H](O)C[C@H]4C(=O)N[C@@H](C)c4ccc(-c5scnc5C)cc4)C(C)(C)C)cc3s2)cc1 [Exemplary Compound 4, (2S,4R)-1-((S)-2-(tert-butyl)-20-((2-(4-(methylamino)phenyl)benzo[d]thiazol-6-yl)oxy)-4-oxo-6,9,12,15,18-pentaoxa-3-azaicosanoyl)-4-hydroxy-N-((S)-1-(4-(4-methylthiazol-5-yl)phenyl)ethyl)pyrrolidine-2-carboxamide]",< 35%
4,"Cc1ncsc1-c1ccc([C@H](C)NC(=O)[C@@H]2C[C@@H](O)CN2C(=O)[C@@H](NC(=O)COCCOCCOc2ccc3c(c2)Sc2cc([N+](=O)[O-])ccc2N3)C(C)(C)C)cc1 [Exemplary Compound 8, (2S,4R)-1-[(2S)-3,3-dimethyl-2-[[2-[2-[2-[(7-nitro-10H-phenothiazin-3-yl)oxy]ethoxy]ethoxy]acetyl]amino]butanoyl]-4-hydroxy-N-[(1S)-1-[4-(4-methylthiazol-5-yl)phenyl]ethyl]pyrrolidine-2-carboxamide]",70 to 120%
5,"Cc1ncsc1-c1ccc([C@H](C)NC(=O)[C@@H]2C[C@@H](O)CN2C(=O)[C@@H](NC(=O)COCCOCCOCCOCCOCCOc2ccc3c(c2)Sc2cc([N+](=O)[O-])ccc2N3)C(C)(C)C)cc1 [Exemplary Compound 11, (2S,4R)-1-((S)-2-(tert-butyl)-20-((7-nitro-10H-phenothiazin-3-yl)oxy)-4-oxo-6,9,12,15,18-pentaoxa-3-azaicosanoyl)-4-hydroxy-N-((S)-1-(4-(4-methylthiazol-5-yl)phenyl)ethyl)pyrrolidine-2-carboxamide]",> 120%
6,"O=C1CCC(N2C(=O)c3ccc(OCCOCCOCCOCCOCCOc4ccc5c(c4)Sc4cc([N+](=O)[O-])ccc4N5)cc3C2=O)C(=O)N1 (stereo not drawn) [Exemplary Compound 14, 2-(2,6-dioxopiperidin-3-yl)-5-((14-((7-nitro-10H-phenothiazin-3-yl)oxy)-3,6,9,12-tetraoxatetradecyl)oxy) isoindoline-1,3-dione]",35 to 70%
7,"CN(CCCN1c2ccccc2Sc2ccccc21)CCOCCOCCOc1ccc2c(c1)C(=O)N(C1CCC(=O)NC1=O)C2=O (stereo not drawn) [Exemplary Compound 15, 5-(2-(2-(2-((3-(10H-phenothiazin-10-yl)propyl)(methyl)amino)ethoxy)ethoxy)ethoxy)-2-(2,6-dioxopiperidin-3-yl)isoindoline-1,3-dione]",35 to 70%
8,"CN(CCCN1c2ccccc2Sc2ccccc21)CCOCCOCCOCCOc1ccc2c(c1)C(=O)N(C1CCC(=O)NC1=O)C2=O (stereo not drawn) [Exemplary Compound 16, 2-(2,6-dioxo-3-piperidyl)-5-[2-[2-[2-[2-[methyl(3-phenothiazin-10-ylpropyl)amino]ethoxy]ethoxy]ethoxy]ethoxy]isoindoline-1,3-dione]",70 to 120%
9,"O=C1CCC(N2C(=O)c3ccc(N4CCN(CCN5CCC(O[C@H]6C[C@H](Oc7ccc8c(c7)Sc7cc([N+](=O)[O-])ccc7N8)C6)CC5)CC4)cc3C2=O)C(=O)N1 (stereo partly drawn) [Exemplary Compound 18, 2-(2,6-dioxo-3-piperidyl)-5-[4-[2-[4-[3-[(7-nitro-10H-phenothiazin-3-yl)oxy]cyclobutoxy]-1-piperidyl]ethyl]piperazin-1-yl]isoindoline-1,3-dione]",70 to 120%
10,"O=C1CCC(N2C(=O)c3ccc(OCCCCCN4CCC(O[C@H]5C[C@H](Oc6ccc7c(c6)Sc6cc([N+](=O)[O-])ccc6N7)C5)CC4)cc3C2=O)C(=O)N1 (stereo partly drawn) [Exemplary Compound 19, 2-(2,6-dioxo-3-piperidyl)-5-[5-[4-[3-[(7-nitro-10H-phenothiazin-3-yl)oxy]cyclobutoxy]-1-piperidyl]pentoxy]isoindoline-1,3-dione]",35 to 70%
11,"CN(C)c1ccc2c(c1)Sc1cc(OCCOCCOCCOCCOCCOc3ccc4c(c3)C(=O)N(C3CCC(=O)NC3=O)C4=O)ccc1N2 (stereo not drawn) [Exemplary Compound 21, 5-((14-((7-(dimethylamino)-10H-phenothiazin-3-yl)oxy)-3,6,9,12-tetraoxatetradecyl)oxy)-2-(2,6-dioxopiperidin-3-yl)isoindoline-1,3-dione]",35 to 70%
12,"O=C1CCC(N2C(=O)c3ccc(OCCCCCN4CCC(OC5CN(CCCN6c7ccccc7Sc7ccccc76)C5)CC4)cc3C2=O)C(=O)N1 (stereo not drawn) [Exemplary Compound 22, 2-(2,6-dioxo-3-piperidyl)-5-[5-[4-[1-(3-phenothiazin-10-ylpropyl)azetidin-3-yl]oxy-1-piperidyl]pentoxy]isoindoline-1,3-dione]",35 to 70%
13,"CN(C)c1ccc(-c2nc3ccc(O[C@H]4C[C@H](OCCCN5CCN(c6ccc7c(c6)C(=O)N(C6CCC(=O)NC6=O)C7=O)CC5)C4)cc3s2)cc1 (stereo partly drawn) [Exemplary Compound 24, 2-(2,6-dioxopiperidin-3-yl)-5-(4-[3-[(1r,3r)-3-([2-[4-(dimethylamino)phenyl]-1,3-benzothiazol-6-yl]oxy)cyclobutoxy]propyl]piperazin-1-yl)-2,3-dihydro-1H-isoindole-1,3-dione]",> 120%
14,"COc1ccc2nc(-c3ccc(N4CC(OC5CCN(CCN6CCN(c7ccc8c(c7)C(=O)N(C7CCC(=O)NC7=O)C8=O)CC6)CC5)C4)cc3)sc2c1 (stereo not drawn) [Exemplary Compound 26, 2-(2,6-dioxopiperidin-3-yl)-5-(4-[2-[4-([1-[4-(6-methoxy-1,3-benzothiazol-2-yl)phenyl]azetidin-3-yl]oxy)piperidin-1-yl]ethyl]piperazin-1-yl)-2,3-dihydro-1H-isoindole-1,3-dione]",35 to 70%
15,"CN(C)c1ccc(-c2nc3ccc(O[C@H]4C[C@H](OC5CCN(CCCCCOc6ccc7c(c6)C(=O)N(C6CCC(=O)NC6=O)C7=O)CC5)C4)cc3s2)cc1 (stereo partly drawn) [Exemplary Compound 27, 2-(2,6-dioxopiperidin-3-yl)-5-[(5-[4-[(1r,3r)-3-([2-[4-(dimethylamino)phenyl]-1,3-benzothiazol-6-yl]oxy)cyclobutoxy]piperidin-1-yl]pentyl)oxy]-2,3-dihydro-1H-isoindole-1,3-dione]",> 120%
